{"source": "patent US4540700A", "about": "“Treatment of diabetic complications with certain spiro-imidazolidine-diones” (Alcon Laboratories, Inc., priority 1984, dated 1985)", "system": "cataract formation in galactocemic rats", "experiment": "in vivo dose response by intubation (per oral) in galactocemic rats, cataract (vacuole) formation", "parameters": "species or system Charles River CD (Sprague-Dawley derived) male rats", "protocol": "B. In vivo dose response studies were conducted to test the in vivo activity of the following compounds by intubation (per oral) in galactocemic rats on a 30% galactose diet previously described:\nStock suspensions of the test compounds and all dilutions of the compound were formulated with 0.03% by weight Tween 80.\nHealthy, Charles River CD (outbred albino, Sprague-Dawley derived) male rats, aged 20-30 days, without observable ocular defects and ranging in weight from 35-45 grams, were acclimated to experimental conditions (in quarantine) for two days prior to beginning the study.\nRats were individually assigned to one of twenty-three groups according to a random number schedule. Two rats, belonging to the same drug-diet treatment group, were housed per cage. Treatment and control groups consisted of six (6) rats each with no replacement in the event of death, and were designated as follows:\nLenses of all eyes were examined with a hand-held ophthalmoscope in the early stages of cataract development and a penlight for the stages, snowflake-like, snowflake, and nuclear cataract. Lens grading occurred every day for the first ten study days, and then every other day until study Day 14.\nThe relative potency determination was made at 7 drug levels over half log dose intervals. The response (percent cataracts formed and/or the time to cataract formation) was plotted against mg/kg and/or moles/kg.\nThe study was directed to the suppression and/or elimination of the initial stages of cataract development characterized by vacuoles or snowflake-likeopacities only. It was assumed therefore that suppression and/or elimination of vacuoles or lens opacification by the test drugs affects the transport, absorption and/or metabolism of galactose in such a manner as to prevent subsequent osmotic disturbances normally leading to tissue degeneration and advanced cataract. Advanced cataract defined as stages 2-4 of the Sipple classification was assumed to be of secondary importance to the etiology of cataract inhibition.\nIn the event where cataract stage other than vacuole formed, such as snowflake-like opacities, this cataract was counted similarly as vacuole in percent cataract formation.\nThis study yielded this expected effect in the control groups.\nAll animals were fed Purina Laboratory Chow and water, ad libitum, for the two day acclimation period. All drugs were dosed orally by intubation using an animal feeding needle (Popper and Sons), 18 or 20 gauge, attached to a 1 or 3 ml syringe. Once the dosing time schedule was established, the schedule was followed throughout the study to compensate for any diurnal variation.\nThe animals were kept on a twelve hour day/night cycle. The temperature and humidity were determined each day at the scheduled dosing time of 1:00 p.m.\nThe animals were weighed every other day and adjustments to dosage amounts to compensate for weight gain were made each day prior to the dose time. All food was routinely withheld from all animal groups for four hours (9:00 a.m.) prior to the drug dose and restored two hours (3:00 p.m.) post-dose. Otherwise sufficient amounts of chow or diet mixture were maintained in the food hopper to allow the animals to eat ad libitum. There were two days of drug dosage with the animals remaining on Purina Laboratory Chow (Days 1 and 2). The 30% galactose diet mixture was introduced to the animals two hours post-dose on Day 3 which constituted Day 1 of the study.\nAll eyes were examined with a hand-held ophthalmoscope and/or penlight at the times designated in the Experimental Design section.\nIt has been found in previous studies that dilation of the eye with a mydriactic (i.e. Mydriacyl) is not necessary for accurate grading, due to the semi-transparent nature of the rat iris. In the early stages (i.e., grades -, ±, and +) the lens was observed by reflecting the ophthalmoscope beam off the retina back through the lens and iris. Using this technique, vacuoles appear as dark, almost opaque patches. […]"}
{"smiles": "O=C1NC(=O)C2(N1)c1cc(F)ccc1-c1ccc(F)cc12", "note": "[M, Spiro-[2,7-difluorofluoren-9,4'-imidazolidine]-2',5'-dione]", "values": [{"measurement": "Percent of Rat Eyes With at Least Vacuoles Formed", "setting": "0.126 mg/kg p.o., Day 0", "value": 0, "unit": "%"}, {"measurement": "Percent of Rat Eyes With at Least Vacuoles Formed", "setting": "0.126 mg/kg p.o., Day 1", "value": 0, "unit": "%"}, {"measurement": "Percent of Rat Eyes With at Least Vacuoles Formed", "setting": "0.126 mg/kg p.o., Day 2", "value": 0, "unit": "%"}, {"measurement": "Percent of Rat Eyes With at Least Vacuoles Formed", "setting": "0.126 mg/kg p.o., Day 3", "value": 0, "unit": "%"}, {"measurement": "Percent of Rat Eyes With at Least Vacuoles Formed", "setting": "0.126 mg/kg p.o., Day 4", "value": 0, "unit": "%"}, {"measurement": "Percent of Rat Eyes With at Least Vacuoles Formed", "setting": "0.126 mg/kg p.o., Day 5", "value": 0, "unit": "%"}, {"measurement": "Percent of Rat Eyes With at Least Vacuoles Formed", "setting": "0.126 mg/kg p.o., Day 6", "value": 8, "unit": "%"}, {"measurement": "Percent of Rat Eyes With at Least Vacuoles Formed", "setting": "0.126 mg/kg p.o., Day 7", "value": 25, "unit": "%"}, {"measurement": "Percent of Rat Eyes With at Least Vacuoles Formed", "setting": "0.126 mg/kg p.o., Day 8", "value": 67, "unit": "%"}, {"measurement": "Percent of Rat Eyes With at Least Vacuoles Formed", "setting": "0.126 mg/kg p.o., Day 9", "value": 67, "unit": "%"}, {"measurement": "Percent of Rat Eyes With at Least Vacuoles Formed", "setting": "0.126 mg/kg p.o., Day 10", "value": 67, "unit": "%"}, {"measurement": "Percent of Rat Eyes With at Least Vacuoles Formed", "setting": "0.126 mg/kg p.o., Day 12", "value": 67, "unit": "%"}, {"measurement": "Percent of Rat Eyes With at Least Vacuoles Formed", "setting": "0.126 mg/kg p.o., Day 14", "value": 75, "unit": "%"}, {"measurement": "Percent of Rat Eyes With at Least Vacuoles Formed", "setting": "0.4 mg/kg p.o., Day 0", "value": 0, "unit": "%"}, {"measurement": "Percent of Rat Eyes With at Least Vacuoles Formed", "setting": "0.4 mg/kg p.o., Day 1", "value": 0, "unit": "%"}, {"measurement": "Percent of Rat Eyes With at Least Vacuoles Formed", "setting": "0.4 mg/kg p.o., Day 2", "value": 0, "unit": "%"}, {"measurement": "Percent of Rat Eyes With at Least Vacuoles Formed", "setting": "0.4 mg/kg p.o., Day 3", "value": 0, "unit": "%"}, {"measurement": "Percent of Rat Eyes With at Least Vacuoles Formed", "setting": "0.4 mg/kg p.o., Day 4", "value": 0, "unit": "%"}, {"measurement": "Percent of Rat Eyes With at Least Vacuoles Formed", "setting": "0.4 mg/kg p.o., Day 5", "value": 0, "unit": "%"}, {"measurement": "Percent of Rat Eyes With at Least Vacuoles Formed", "setting": "0.4 mg/kg p.o., Day 6", "value": 0, "unit": "%"}, {"measurement": "Percent of Rat Eyes With at Least Vacuoles Formed", "setting": "0.4 mg/kg p.o., Day 7", "value": 0, "unit": "%"}, {"measurement": "Percent of Rat Eyes With at Least Vacuoles Formed", "setting": "0.4 mg/kg p.o., Day 8", "value": 0, "unit": "%"}, {"measurement": "Percent of Rat Eyes With at Least Vacuoles Formed", "setting": "0.4 mg/kg p.o., Day 9", "value": 0, "unit": "%"}, {"measurement": "Percent of Rat Eyes With at Least Vacuoles Formed", "setting": "0.4 mg/kg p.o., Day 10", "value": 0, "unit": "%"}, {"measurement": "Percent of Rat Eyes With at Least Vacuoles Formed", "setting": "0.4 mg/kg p.o., Day 12", "value": 0, "unit": "%"}, {"measurement": "Percent of Rat Eyes With at Least Vacuoles Formed", "setting": "0.4 mg/kg p.o., Day 14", "value": 0, "unit": "%"}, {"measurement": "Percent of Rat Eyes With at Least Vacuoles Formed", "setting": "1.26 mg/kg p.o., Day 0", "value": 0, "unit": "%"}, {"measurement": "Percent of Rat Eyes With at Least Vacuoles Formed", "setting": "1.26 mg/kg p.o., Day 1", "value": 0, "unit": "%"}, {"measurement": "Percent of Rat Eyes With at Least Vacuoles Formed", "setting": "1.26 mg/kg p.o., Day 2", "value": 0, "unit": "%"}, {"measurement": "Percent of Rat Eyes With at Least Vacuoles Formed", "setting": "1.26 mg/kg p.o., Day 3", "value": 0, "unit": "%"}, {"measurement": "Percent of Rat Eyes With at Least Vacuoles Formed", "setting": "1.26 mg/kg p.o., Day 4", "value": 0, "unit": "%"}, {"measurement": "Percent of Rat Eyes With at Least Vacuoles Formed", "setting": "1.26 mg/kg p.o., Day 5", "value": 0, "unit": "%"}, {"measurement": "Percent of Rat Eyes With at Least Vacuoles Formed", "setting": "1.26 mg/kg p.o., Day 6", "value": 0.0, "unit": "%"}, {"measurement": "Percent of Rat Eyes With at Least Vacuoles Formed", "setting": "1.26 mg/kg p.o., Day 6, listed as 2,7-difluoro", "value": 0, "unit": "%"}, {"measurement": "Percent of Rat Eyes With at Least Vacuoles Formed", "setting": "1.26 mg/kg p.o., Day 7", "value": 0, "unit": "%"}, {"measurement": "Percent of Rat Eyes With at Least Vacuoles Formed", "setting": "1.26 mg/kg p.o., Day 8", "value": 0, "unit": "%"}, {"measurement": "Percent of Rat Eyes With at Least Vacuoles Formed", "setting": "1.26 mg/kg p.o., Day 9", "value": 0, "unit": "%"}, {"measurement": "Percent of Rat Eyes With at Least Vacuoles Formed", "setting": "1.26 mg/kg p.o., Day 10", "value": 0, "unit": "%"}, {"measurement": "Percent of Rat Eyes With at Least Vacuoles Formed", "setting": "1.26 mg/kg p.o., Day 12", "value": 0, "unit": "%"}, {"measurement": "Percent of Rat Eyes With at Least Vacuoles Formed", "setting": "1.26 mg/kg p.o., Day 14", "value": 0, "unit": "%"}, {"measurement": "Percent of Rat Eyes With at Least Vacuoles Formed", "setting": "4.0 mg/kg p.o., Day 0", "value": 0, "unit": "%"}, {"measurement": "Percent of Rat Eyes With at Least Vacuoles Formed", "setting": "4.0 mg/kg p.o., Day 1", "value": 0, "unit": "%"}, {"measurement": "Percent of Rat Eyes With at Least Vacuoles Formed", "setting": "4.0 mg/kg p.o., Day 2", "value": 0, "unit": "%"}, {"measurement": "Percent of Rat Eyes With at Least Vacuoles Formed", "setting": "4.0 mg/kg p.o., Day 3", "value": 0, "unit": "%"}, {"measurement": "Percent of Rat Eyes With at Least Vacuoles Formed", "setting": "4.0 mg/kg p.o., Day 4", "value": 0, "unit": "%"}, {"measurement": "Percent of Rat Eyes With at Least Vacuoles Formed", "setting": "4.0 mg/kg p.o., Day 5", "value": 0, "unit": "%"}, {"measurement": "Percent of Rat Eyes With at Least Vacuoles Formed", "setting": "4.0 mg/kg p.o., Day 6", "value": 0.0, "unit": "%"}, {"measurement": "Percent of Rat Eyes With at Least Vacuoles Formed", "setting": "4.0 mg/kg p.o., Day 6, listed as 2,7-difluoro", "value": 0, "unit": "%"}, {"measurement": "Percent of Rat Eyes With at Least Vacuoles Formed", "setting": "4.0 mg/kg p.o., Day 7", "value": 0.0, "unit": "%"}, {"measurement": "Percent of Rat Eyes With at Least Vacuoles Formed", "setting": "4.0 mg/kg p.o., Day 7, listed as 2,7-difluoro", "value": 0, "unit": "%"}, {"measurement": "Percent of Rat Eyes With at Least Vacuoles Formed", "setting": "4.0 mg/kg p.o., Day 8", "value": 0.0, "unit": "%"}, {"measurement": "Percent of Rat Eyes With at Least Vacuoles Formed", "setting": "4.0 mg/kg p.o., Day 8, listed as 2,7-difluoro", "value": 0, "unit": "%"}]}
